From ChEMBL document CHEMBL1201862, “PubChem BioAssay data set” (2004)
The source made the active and inactive calls.

Assays:
[1] = biological target: T1, Runt-related transcription factor 1/Core-binding factor subunit beta (Homo sapiens, UniProt Q01196+Q13951); experiment: inhibitors of RUNX1 Runt–CBFb-SMMHC binding, primary screen, biochemical, FRET, Cerulean-Runt, Venus-CBFb-SMMHC, uHTS (AID 1434); type: protein assay;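 further: partner is the CBFb-SMMHC leukemia fusion protein rather than wild-type CBFb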
[2] = biological target: T1, Runt-related transcription factor 1/Core-binding factor subunit beta; experiment: inhibitors of RUNX1 Runt–CBFb-SMMHC binding, biochemical, TR-FRET (AID 1438); type: protein assay
Trypsin = Trypsin (Sus scrofa, UniProt P00761); experiment: porcine trypsin inhibitors, dose response, selectivity assay for Rce1 protease inhibitor project, biochemical, quenched peptide fluorescence, cherry-pick (AID 488789)
CAAX prenyl protease 2 = CAAX prenyl protease 2 (Homo sapiens, UniProt Q9Y256); experiment: human Rce1 protease inhibitors, dose response, biochemical, yeast membranes, quenched-peptide fluorescence, cherry-pick (AID 588849)
[3] = Luminescent dose response cell-based high throughput screening assay for inhibitors of the Janus kinase 2 mutant JAK2V617F. [Related pubchem assays: 1446 (Primary screen.), 1521 (Confirmation assay.), 1486 (Counter screen.)]; type: functional
Vero [4] = experiment: cells; type: functional, cell-based; details: Chlorocebus sabaeus
Vero [5] = experiment: cells; type: functional; details: Chlorocebus sabaeus
Hexokinase-1 = biological target: T2, Hexokinase-1 (Homo sapiens, UniProt P19367); experiment: HK1 enzyme inhibition by HKDC1 hits, SAR follow-up, selectivity assay for HKDC1 inhibitor project, biochemical, set 2, resazurin fluorescence coupled readout (AID 588356); type: functional
T2 sequence (P19367 whole entry): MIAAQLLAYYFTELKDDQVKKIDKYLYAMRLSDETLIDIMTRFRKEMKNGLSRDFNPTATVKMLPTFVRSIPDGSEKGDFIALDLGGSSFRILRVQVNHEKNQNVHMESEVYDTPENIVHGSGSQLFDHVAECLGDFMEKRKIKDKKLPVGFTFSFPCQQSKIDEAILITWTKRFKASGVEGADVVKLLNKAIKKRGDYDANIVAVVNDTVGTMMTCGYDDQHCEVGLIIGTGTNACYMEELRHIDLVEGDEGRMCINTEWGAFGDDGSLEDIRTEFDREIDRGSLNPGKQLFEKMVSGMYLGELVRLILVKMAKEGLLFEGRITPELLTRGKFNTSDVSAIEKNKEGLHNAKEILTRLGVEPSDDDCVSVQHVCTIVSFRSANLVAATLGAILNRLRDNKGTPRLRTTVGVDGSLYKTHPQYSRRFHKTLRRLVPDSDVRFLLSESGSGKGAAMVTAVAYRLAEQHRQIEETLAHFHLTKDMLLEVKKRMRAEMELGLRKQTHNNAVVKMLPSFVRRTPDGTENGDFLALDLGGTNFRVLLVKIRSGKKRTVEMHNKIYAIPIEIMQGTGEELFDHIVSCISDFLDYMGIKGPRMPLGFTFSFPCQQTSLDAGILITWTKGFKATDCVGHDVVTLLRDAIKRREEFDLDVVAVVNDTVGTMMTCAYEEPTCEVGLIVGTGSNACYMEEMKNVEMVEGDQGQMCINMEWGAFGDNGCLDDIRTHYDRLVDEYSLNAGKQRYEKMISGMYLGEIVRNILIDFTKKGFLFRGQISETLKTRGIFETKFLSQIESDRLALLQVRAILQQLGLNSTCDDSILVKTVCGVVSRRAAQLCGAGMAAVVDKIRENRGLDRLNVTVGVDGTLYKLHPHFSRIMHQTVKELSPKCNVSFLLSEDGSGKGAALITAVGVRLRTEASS

Hexokinase HKDC1 = biological target: T3, Hexokinase HKDC1 (Homo sapiens, UniProt Q2TB90); experiment: HKDC1 hexokinase inhibitors, SAR follow-up, biochemical, set 2 (AID 588355); type: functional
T3 sequence (Q2TB90 whole entry): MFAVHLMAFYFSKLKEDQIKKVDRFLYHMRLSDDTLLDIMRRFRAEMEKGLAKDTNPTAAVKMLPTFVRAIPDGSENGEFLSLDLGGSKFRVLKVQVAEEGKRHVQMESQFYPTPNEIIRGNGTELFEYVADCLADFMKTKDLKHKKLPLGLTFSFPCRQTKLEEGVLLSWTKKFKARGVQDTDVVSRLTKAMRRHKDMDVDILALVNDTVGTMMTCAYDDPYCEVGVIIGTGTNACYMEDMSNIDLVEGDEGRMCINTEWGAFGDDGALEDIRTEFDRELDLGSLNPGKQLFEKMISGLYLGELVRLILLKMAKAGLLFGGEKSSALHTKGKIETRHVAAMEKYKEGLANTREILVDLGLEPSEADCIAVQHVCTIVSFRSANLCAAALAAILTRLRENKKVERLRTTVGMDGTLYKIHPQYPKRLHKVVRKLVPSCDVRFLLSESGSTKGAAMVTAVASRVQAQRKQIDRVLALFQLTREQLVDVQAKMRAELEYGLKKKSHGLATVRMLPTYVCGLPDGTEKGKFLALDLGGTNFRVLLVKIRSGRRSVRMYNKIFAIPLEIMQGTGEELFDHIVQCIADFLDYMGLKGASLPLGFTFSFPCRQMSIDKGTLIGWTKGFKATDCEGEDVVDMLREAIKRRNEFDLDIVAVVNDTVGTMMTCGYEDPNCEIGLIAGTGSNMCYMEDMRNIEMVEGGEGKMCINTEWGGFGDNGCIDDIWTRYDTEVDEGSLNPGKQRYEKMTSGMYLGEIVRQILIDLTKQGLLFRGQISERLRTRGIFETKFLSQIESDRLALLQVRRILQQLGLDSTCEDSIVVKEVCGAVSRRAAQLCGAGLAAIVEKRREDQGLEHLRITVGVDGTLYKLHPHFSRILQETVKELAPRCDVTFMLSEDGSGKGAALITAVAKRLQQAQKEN

Galanin receptor type 2 = Galanin receptor type 2 (Homo sapiens, UniProt O43603); experiment: Dose Response cell-based high-throughput screening assay to identify antagonists of galanin receptor 2 (GALR2). [Related pubchem assays: 828, 866 ]; type: functional
[6] = Luminescence Cell-Based Dose Retest to Confirm Inhibitors of Cancer Stem Cells. [Related pubchem assays (depositor defined):AID2717, AID2721]; type: functional; details: Homo sapiens
[7] = cytotoxicity in HMLE control line with eGFP shRNA, dose response, counter-screen for HMLE_sh_ECad selective toxicity project, cell-based, HMLE_sh_eGFP, luminescence (AID 463074); type: functional, Homo sapiens;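 further: HMLE human mammary epithelial cells expressing control shRNA against eGFP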
INS1 = experiment: beta cell apoptosis inhibitors, cytokine rescue, dose response, luminescence, retest (AID 449756); type: functional, cell-based; details: Rattus norvegicus, INS1;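 further: cell death triggered by IL-1 beta plus TNF-alpha plus IFN-gamma mixture; protective hits raise ATP signal compared with cytokine alone wells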
Protein Wnt-3a = Protein Wnt-3a (Mus musculus, UniProt P27467); experiment: Wnt3a-driven reporter signaling inhibition, dose response, selectivity assay for Gli-SUFU antagonist project, Wnt-LIGHT cells, luminescence (AID 651570); type: functional; details: read-out: IC50_Mean;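 further: Wnt-LIGHT reporter cells stimulated with conditioned medium from Wnt3a-producing cells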
Galanin receptor type 3 = biological target: T4, Galanin receptor type 3 (Homo sapiens, UniProt O60755); experiment: Fluorescence-based cell-based primary high throughput dose response assay to identify antagonists of the Galanin Receptor 3 (GalR3).; type: functional
T4 sequence (O60755 whole entry): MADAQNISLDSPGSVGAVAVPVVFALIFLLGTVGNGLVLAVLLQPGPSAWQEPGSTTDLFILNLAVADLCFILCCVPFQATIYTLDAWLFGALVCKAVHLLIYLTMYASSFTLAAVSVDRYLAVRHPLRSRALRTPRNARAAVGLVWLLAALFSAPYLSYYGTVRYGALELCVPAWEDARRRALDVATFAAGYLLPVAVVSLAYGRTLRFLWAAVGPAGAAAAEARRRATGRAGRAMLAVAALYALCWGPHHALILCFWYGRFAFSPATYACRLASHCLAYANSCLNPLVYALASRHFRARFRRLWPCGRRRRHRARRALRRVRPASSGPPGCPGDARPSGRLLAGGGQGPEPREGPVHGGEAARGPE

cells = type: functional, cell-based; details: HEK-CNG
[8] = biological target: Dual specificity tyrosine-phosphorylation-regulated kinase 1A (Rattus norvegicus, UniProt Q63470); type: biochemical, Homo sapiens
Cytochrome P450 2C19 = Cytochrome P450 2C19 (Homo sapiens, UniProt P33261); experiment: Cytochrome panel assay with activity outcomes. Panel member name: p450-cyp2c19 Compounds with AC50 equal or less than 10 uM are considered active; type: functional; details: read-out: AC50
[9] = biological target: Dual specificity protein kinase CLK1 (Homo sapiens, UniProt P49759); experiment: CLK1 kinase inhibitors, off-target check, dose response, selectivity assay for Dyrk1A inhibitor project, biochemical, cherry-picked samples (AID 588811)
Cytochrome P450 2C9 = Cytochrome P450 2C9 (Homo sapiens, UniProt P11712)
[10] = biological target: Voltage-gated inwardly rectifying potassium channel KCNH2 (Homo sapiens, UniProt Q12809); details: Potency;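 further: confirmatory quantitative high-throughput screen measuring inhibition of hERG channel activity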
Cytochrome P450 3A4 = Cytochrome P450 3A4 (Homo sapiens, UniProt P08684);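 further: CYP3A4 tested as one member of a cytochrome P450 panel screen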
NIH3T3 = experiment: cytotoxicity in NIH-3T3 fibroblasts, dose response, cytotoxicity control for antifungal drug resistance project, cell-based, Alamar Blue, fluconazole, dry powder (AID 488809); type: functional; details: Mus musculus
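Wherever EC50 is given: target is galanin receptor GalR3 read with a cAMP biosensor in HEK293 cells.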

T1 sequence (Q01196 whole entry, the tested form may be a part): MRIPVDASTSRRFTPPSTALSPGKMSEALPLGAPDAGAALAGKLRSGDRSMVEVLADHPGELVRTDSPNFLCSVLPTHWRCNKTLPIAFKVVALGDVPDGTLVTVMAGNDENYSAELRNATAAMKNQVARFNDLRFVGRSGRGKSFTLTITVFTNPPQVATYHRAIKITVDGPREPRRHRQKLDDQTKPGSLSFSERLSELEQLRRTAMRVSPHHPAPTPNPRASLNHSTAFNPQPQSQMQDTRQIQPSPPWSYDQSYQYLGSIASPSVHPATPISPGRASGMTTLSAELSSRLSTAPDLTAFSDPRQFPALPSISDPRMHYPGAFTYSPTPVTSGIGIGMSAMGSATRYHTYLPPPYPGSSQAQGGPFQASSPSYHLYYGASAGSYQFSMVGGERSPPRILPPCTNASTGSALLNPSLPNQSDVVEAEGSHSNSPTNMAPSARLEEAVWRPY
T1 sequence (Q13951 whole entry, the tested form may be a part): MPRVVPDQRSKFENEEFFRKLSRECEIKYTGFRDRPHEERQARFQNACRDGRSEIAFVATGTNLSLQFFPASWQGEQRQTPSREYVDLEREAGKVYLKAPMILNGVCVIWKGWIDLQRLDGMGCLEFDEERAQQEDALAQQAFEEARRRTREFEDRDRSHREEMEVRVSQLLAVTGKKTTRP
Sequence of Cytochrome P450 2C19 (P33261 whole entry): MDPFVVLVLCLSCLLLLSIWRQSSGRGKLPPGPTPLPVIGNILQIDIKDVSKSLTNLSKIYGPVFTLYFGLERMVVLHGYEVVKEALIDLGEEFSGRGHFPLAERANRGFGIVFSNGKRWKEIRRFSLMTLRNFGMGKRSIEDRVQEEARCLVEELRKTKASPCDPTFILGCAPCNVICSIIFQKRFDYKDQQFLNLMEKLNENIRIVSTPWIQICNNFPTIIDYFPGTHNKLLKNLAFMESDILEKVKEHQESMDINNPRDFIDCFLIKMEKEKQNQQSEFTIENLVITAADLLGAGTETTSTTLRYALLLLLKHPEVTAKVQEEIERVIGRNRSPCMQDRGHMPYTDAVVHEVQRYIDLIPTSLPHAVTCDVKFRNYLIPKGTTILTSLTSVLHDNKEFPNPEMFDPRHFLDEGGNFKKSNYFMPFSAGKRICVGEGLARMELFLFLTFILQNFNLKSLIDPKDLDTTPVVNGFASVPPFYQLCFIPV
Sequence of CAAX prenyl protease 2 (Q9Y256 whole entry): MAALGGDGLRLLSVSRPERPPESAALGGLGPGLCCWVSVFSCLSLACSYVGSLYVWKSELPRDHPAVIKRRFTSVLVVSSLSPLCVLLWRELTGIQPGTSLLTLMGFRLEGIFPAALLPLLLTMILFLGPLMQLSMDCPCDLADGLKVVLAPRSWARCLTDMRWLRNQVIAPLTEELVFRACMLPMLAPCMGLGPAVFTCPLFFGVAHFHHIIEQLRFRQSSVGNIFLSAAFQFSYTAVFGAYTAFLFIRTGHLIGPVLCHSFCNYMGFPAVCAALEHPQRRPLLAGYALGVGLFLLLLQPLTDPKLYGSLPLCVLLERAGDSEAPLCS
Sequence of Cytochrome P450 2C9 (P11712 whole entry): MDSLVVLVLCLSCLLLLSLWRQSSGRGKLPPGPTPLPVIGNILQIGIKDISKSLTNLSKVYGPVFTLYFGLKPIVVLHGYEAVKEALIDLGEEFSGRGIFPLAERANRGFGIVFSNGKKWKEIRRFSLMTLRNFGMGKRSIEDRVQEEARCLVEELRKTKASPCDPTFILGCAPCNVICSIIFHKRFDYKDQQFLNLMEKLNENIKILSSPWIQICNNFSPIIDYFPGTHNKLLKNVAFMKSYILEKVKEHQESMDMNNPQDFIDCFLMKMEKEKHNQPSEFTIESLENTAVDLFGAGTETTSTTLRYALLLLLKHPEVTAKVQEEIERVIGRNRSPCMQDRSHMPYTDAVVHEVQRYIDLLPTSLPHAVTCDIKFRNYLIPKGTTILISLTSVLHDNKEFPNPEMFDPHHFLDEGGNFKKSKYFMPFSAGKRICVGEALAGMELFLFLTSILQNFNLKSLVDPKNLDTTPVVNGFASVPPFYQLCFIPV
Sequence of Dual specificity protein kinase CLK1 (P49759 whole entry): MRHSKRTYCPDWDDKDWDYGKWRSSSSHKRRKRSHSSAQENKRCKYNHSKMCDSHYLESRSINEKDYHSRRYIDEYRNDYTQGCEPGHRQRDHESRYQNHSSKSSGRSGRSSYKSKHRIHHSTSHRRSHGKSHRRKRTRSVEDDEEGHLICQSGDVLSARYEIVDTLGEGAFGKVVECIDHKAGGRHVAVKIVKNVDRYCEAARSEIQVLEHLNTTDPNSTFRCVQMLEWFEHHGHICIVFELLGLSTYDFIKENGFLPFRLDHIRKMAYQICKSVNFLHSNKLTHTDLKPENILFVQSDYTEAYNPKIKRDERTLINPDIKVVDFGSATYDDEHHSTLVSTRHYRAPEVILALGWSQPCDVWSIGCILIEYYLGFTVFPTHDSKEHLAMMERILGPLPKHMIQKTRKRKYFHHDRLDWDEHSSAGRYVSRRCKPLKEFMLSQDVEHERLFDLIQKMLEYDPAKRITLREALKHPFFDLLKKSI
Sequence of Trypsin (P00761 whole entry): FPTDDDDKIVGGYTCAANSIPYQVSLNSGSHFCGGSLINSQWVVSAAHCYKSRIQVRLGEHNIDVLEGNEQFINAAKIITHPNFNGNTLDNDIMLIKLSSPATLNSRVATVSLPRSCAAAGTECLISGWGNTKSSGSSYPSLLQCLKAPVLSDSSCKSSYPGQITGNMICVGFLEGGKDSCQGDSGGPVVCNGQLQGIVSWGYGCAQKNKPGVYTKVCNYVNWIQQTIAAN
Sequence of Protein Wnt-3a (P27467 whole entry): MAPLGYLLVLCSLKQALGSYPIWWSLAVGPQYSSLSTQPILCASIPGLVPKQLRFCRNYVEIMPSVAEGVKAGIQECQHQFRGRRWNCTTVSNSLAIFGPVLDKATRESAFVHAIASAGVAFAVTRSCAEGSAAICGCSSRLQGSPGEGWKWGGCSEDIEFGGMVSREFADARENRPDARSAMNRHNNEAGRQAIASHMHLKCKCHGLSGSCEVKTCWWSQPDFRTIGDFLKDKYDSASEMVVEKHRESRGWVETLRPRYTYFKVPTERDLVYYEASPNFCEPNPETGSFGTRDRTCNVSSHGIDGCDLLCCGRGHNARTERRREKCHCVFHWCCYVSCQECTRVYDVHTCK
Sequence of Cytochrome P450 3A4 (P08684 whole entry): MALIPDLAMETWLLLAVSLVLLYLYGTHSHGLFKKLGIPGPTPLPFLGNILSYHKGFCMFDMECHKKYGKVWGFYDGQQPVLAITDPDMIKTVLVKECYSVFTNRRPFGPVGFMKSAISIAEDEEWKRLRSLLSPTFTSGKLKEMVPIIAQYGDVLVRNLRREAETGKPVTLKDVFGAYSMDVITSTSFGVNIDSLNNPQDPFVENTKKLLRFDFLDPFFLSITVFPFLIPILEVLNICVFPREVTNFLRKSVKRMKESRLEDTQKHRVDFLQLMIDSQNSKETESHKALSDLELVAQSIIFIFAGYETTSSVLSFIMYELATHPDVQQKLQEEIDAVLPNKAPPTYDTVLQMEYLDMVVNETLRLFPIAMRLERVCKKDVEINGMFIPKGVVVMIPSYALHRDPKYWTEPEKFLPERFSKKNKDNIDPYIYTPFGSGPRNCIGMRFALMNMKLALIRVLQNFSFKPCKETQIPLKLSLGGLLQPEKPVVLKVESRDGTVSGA
Sequence of Voltage-gated inwardly rectifying potassium channel KCNH2 (Q12809 whole entry): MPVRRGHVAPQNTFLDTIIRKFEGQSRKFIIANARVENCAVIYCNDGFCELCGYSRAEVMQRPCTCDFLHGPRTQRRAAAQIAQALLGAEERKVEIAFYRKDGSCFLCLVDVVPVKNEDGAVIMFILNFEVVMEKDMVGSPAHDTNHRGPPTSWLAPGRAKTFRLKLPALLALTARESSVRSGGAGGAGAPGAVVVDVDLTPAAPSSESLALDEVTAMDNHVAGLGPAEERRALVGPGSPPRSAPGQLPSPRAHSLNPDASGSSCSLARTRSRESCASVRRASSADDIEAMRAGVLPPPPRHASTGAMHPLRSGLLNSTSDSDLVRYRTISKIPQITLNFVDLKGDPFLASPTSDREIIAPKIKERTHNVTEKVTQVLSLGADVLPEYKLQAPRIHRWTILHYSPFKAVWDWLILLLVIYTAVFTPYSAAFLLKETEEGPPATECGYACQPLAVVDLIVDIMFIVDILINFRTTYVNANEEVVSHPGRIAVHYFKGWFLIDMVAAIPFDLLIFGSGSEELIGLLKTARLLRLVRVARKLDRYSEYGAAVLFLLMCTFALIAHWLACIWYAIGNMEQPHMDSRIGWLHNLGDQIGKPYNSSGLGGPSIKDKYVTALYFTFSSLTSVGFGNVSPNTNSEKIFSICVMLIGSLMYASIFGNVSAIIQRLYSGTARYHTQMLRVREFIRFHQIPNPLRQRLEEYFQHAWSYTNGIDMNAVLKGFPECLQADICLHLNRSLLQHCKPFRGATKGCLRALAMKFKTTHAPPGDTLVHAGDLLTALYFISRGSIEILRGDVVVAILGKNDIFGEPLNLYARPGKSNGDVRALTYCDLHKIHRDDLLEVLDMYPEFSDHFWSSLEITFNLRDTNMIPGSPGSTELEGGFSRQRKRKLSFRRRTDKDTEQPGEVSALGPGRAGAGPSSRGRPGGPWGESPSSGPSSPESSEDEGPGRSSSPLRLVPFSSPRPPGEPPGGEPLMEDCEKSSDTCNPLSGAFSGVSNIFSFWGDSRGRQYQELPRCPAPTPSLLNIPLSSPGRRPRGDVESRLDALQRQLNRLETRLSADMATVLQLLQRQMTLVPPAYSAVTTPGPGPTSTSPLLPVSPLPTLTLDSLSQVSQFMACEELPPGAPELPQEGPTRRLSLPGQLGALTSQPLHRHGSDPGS

For `Cc1ccc(S(=O)(=O)Oc2ccc(C3C4=C(CCCC4=O)N(CCC(=O)O)C4=C3C(=O)CCC4)cc2Cl)cc1`, the IC50 [1] was 0.393 µM (active), the IC50 [2] was 14.6 µM (active) and the AC50 (Trypsin) was 6.27 µM (active). For the same compound, the AC50 (CAAX prenyl protease 2) was 11.4 µM (active).
For `COc1cc(/C=C2\COC/C(=C\c3ccc(O)c(OC)c3)C2=O)ccc1O`, the IC50 [3] was 1.15 µM (active), the IC50 (Vero [4]) was > 25 µM (active) and the CC50 (Vero [5]) was 5.27 µM (active).
In the case of `Cc1ccc(N2C(=O)c3cccnc3C2Nc2ccc(C)c(C)c2)cc1` (stereo not drawn), the IC50 (Hexokinase-1) is reported as > 80 µM (inactive) and the IC50 (Hexokinase HKDC1) is reported as > 80 µM (inactive).
For `CCCCOc1[nH]cnc2c3cc(F)ccc3nc1-2`, the IC50 (Galanin receptor type 2) was 472 µM (not active), the AC50 [6] was > 195 µM (inactive) and the AC50 [7] was 52.7 µM (active). The AC50 (INS1) was 4.34 µM (active), the IC50 (Protein Wnt-3a) was 1.56 µM (active) and the IC50 (Galanin receptor type 3) was 2.19 µM (active). The EC50 (cells) was > 29.9 µM (inactive).
In the case of `COc1ccc2c(c1)CCc1sc(NC(=O)c3ccco3)nc1-2`, the AC50 [8] is reported as 2.01 µM (active).
For `c1cncc(CNc2cc(-c3ccc4c(c3)OCO4)ncn2)c1`, the AC50 (Cytochrome P450 2C19) was 25.1 µM (inconclusive), the AC50 [9] was 5.2 µM (active) and the AC50 (Cytochrome P450 2C9) was 0.316 µM (inconclusive).
With `O=S(=O)(O)C1CCNCC1` the AC50 [10] was 22.4 µM (inconclusive) and the AC50 (Cytochrome P450 3A4) was “inconclusive”.
With `O=C(c1ccc(Cl)cc1)N1CCN(c2cc(C(F)(F)F)nc3ccccc23)CC1` the AC50 (NIH3T3) was 23.2 µM (active).
